Reference: US12024515B2, “Kifunensine derivatives” (University of Kansas, priority 2021, dated 2024)
Numbered stars: 1 amine (or outer) side, 2 acyl side, 3 side chain; on linkers, the order of the positions; unused ones are H or OH. Bridge positions count the residues as written; N and C are the ends. Square brackets hold non-standard residues; d marks the D form. Peptide text beside a SMILES is read from it. I, II: the chains in the order shown. Actinocin(9to1) = Cc1c2oc3c(C)ccc(C(=O)[*:1])c3nc-2c(C(=O)[*:2])c(N)c1=O; NMeV = CN[C@H](C(=O)O)C(C)C; Sar = CNCC(=O)O

Legend:
[1] = tested on: Raji cells; assay: CD20 expression in Raji cells (flow cytometry of surface CD20, western blotting); type: cell-based; details: for effect on Kif mediated CD20 upregulation: with Kif 25 μM, actinomycin D 10 μg/ml, cycloheximide 100 μg/ml, 48 hours (FIG. 2A); for cell surface expression of CD20: 48 hours, flow cytometry, Kif 25 μM, Swain 25 μM, DMJ 1 mM, DIM 1 mM (FIG. 1A, 1C)
Protocol: (§1) FIGS. 1A-1E relate to kifunensine (“Kif”) induced expression of CD20. Raji cells were incubated with Kif for 48 hours and CD20 levels on the cell surface levels were analyzed by flow cytometry (FIG. 1A) and in whole cell lysate by western blotting (FIG. 1B). Raji cells were preincubated with Kif (25 μM), Swain (25 μM), DMJ (1 mM), and DIM (1 mM) or vehicle for 48 hours, and the cell surface levels of CD20 were analyzed by flow cytometry (FIG. 1C). Cells were incubated with Kif (25 μM) or vehicle for 48 hours and the cell surface levels of CD20 were analyzed by flow cytometry (FIG. 1D). Raji and rituximab resistant cells were incubated with Kif (25 μM) or vehicle for 48 hours and the cell surface levels of CD20 were analyzed by flow cytometry (FIG. 1E). Results are presented as a percentage of MFI of vehicle treated control cells (±SD). Statistical significance was determined with Kruskal-Wallis test, *P<0.033, **P<0.002, ****P<0.001, vs control.
Staining of surface antigens. Cells were treated for 48 hours with the described inhibitors at the indicated concentrations or with DMSO controls. Cells were then harvested, washed twice with cold flow buffer (PBS (GIBCO) containing 0.5% BSA and 0.1% sodium azide (Fisher)), stained for 1 hour with 0.25 μg of anti-CD20 mAb (clone 2H7) conjugated with Super Bright 645 (eBioscience, ThermoFisher Scientific), then washed twice with flow buffer, and finally the cells were incubated with flow buffer containing 2.5 μg/mL 7-aminoactinomycin (7-AAD, eBioscience, ThermoFisher Scientific) for 10 minutes prior to being analyzed using an Attune NxT Flow Cytometer. CD20 expression was assessed in 7-AAD negative cells.

[2] = tested on: panel of cells lines representing diffuse large B cell lymphoma, Burkitt lymphoma, and follicular lymphoma; assay: Cell surface CD20 in a panel of B cell lymphoma cell lines (flow cytometry); type: cell-based; details: 25 μM, 48 hours, flow cytometry (FIG. 1D)
Protocol: as §1
(§2) Staining of surface antigens. Cells were treated for 48 hours with the described inhibitors at the indicated concentrations or with DMSO controls. […] CD20 expression was assessed in 7-AAD negative cells.

[3] = tested on: rituximab resistant cell lines (Raji 2R, Raji 4RH, RL 4RH); assay: Cell surface CD20 in rituximab resistant cell lines (flow cytometry); type: cell-based; details: 25 μM, 48 hours (FIG. 1E)
Protocol: as §1, §2

[4] = tested on: patient derived primary CLL samples; assay: CD20 expression in patient derived primary CLL samples; type: cell-based
[5] = tested on: MS4A1; assay: CD20 mRNA (MS4A1) expression by RT-PCR; type: cell-based; details: Raji cells, Kif 25 μM, 48 hours, RT-PCR (FIG. 2B)
Protocol: FIGS. 2A-2B illustrates that Kif mediates CD20 upregulation occurs upstream of transcription and translation. Cells were incubated with Kif (25 μM), Kif (25 μM) plus actinomycin D (10 μg/ml), Kif (25 μM) plus cycloheximide (100 μg/ml), or vehicle control (Con) for 48 hours and the cell surface levels of CD20 were analyzed by flow cytometry (FIG. 2A). Cells were incubated with Kif (25 μM) or vehicle control (Con) for 48 hours and CD20 mRNA levels were analyzed by RT-PCR (FIG. 2B).

[6] = tested on: Raji cells; assay: Histone acetylation in Raji cells; type: cell-based
[7] = tested on: malignant B cell lines; assay: ADCC assay with anti-CD20 antibody and CD16+ NK-92 effector cells; type: cell-based
Protocol: FIGS. 3A-3B illustrate Kif potentiates the activity of anti-CD20 antibodies in vitro. Cells were incubated with Kif (25 μM) or vehicle control (Con) for 48 hours prior to rituximab mediated ADCC (FIG. 3A) or CDC (FIG. 3B). ADCC assays. Target cells were labelled with CellTrace Violet according to the manufacturer's instructions (ThermoFisher Scientific). In brief, 1 million target cells were washed twice with warm PBS, then stained with 5 μM CellTrace Violet in PBS for 20 minutes at 37° C. Then, 5 volume equivalents of complete media were added and the resulting solution was incubated for 10 minutes at 37° C. The cells were pelleted and washed twice with fresh complete media, and the cell suspension was adjusted to 800,000 cells/mL in complete media. 25 μL of the target cell suspension (i.e., 20,000 target cells) were then in added to a 96-well plate. 25 μL of rituximab solutions at 4× the indicated concentrations in complete media or complete media were added to experiment wells and the control wells respectively, and the resulting suspensions were incubated for 30 minutes at 37° C. Subsequently, 50 μL of a 1.6 million CD-16+ NK-92 cells/mL suspension in complete media (E:T 4:1, i.e., 80,000 effector cells) were added to experiment wells and control wells (i.e., no antibody) and the plate was incubated for 4 hours at 37° C. in a fully humidified atmosphere of 5% CO2. Subsequently, 6 uL of 2.5 μg/mL was added to each well and after 10 minutes the plate was analyzed using an Attune NxT Flow Cytometer. Target cell viability was accessed by determining the percentage of CellTrace Violet and 7-AAD positive cells. ADCC was calculated as follows: % ADCC=% 7-AAD positive target cells in experiment well—% 7-AAD positive target cells in control wells.

[8] = tested on: malignant B cell lines; assay: CDC assay with anti-CD20 antibody and pooled human serum; type: cell-based
Protocol: FIGS. 3A-3B illustrate Kif potentiates the activity of anti-CD20 antibodies in vitro. Cells were incubated with Kif (25 μM) or vehicle control (Con) for 48 hours prior to rituximab mediated ADCC (FIG. 3A) or CDC (FIG. 3B). CDC assays. 25 μL of the target cell suspension at 2 million cells/mL (i.e., 50,000 target cells) were added to a 96-well plate. 25 μL of antibody solutions at 4× the indicated concentrations in complete media or complete media were added to experiment wells and the control wells respectively, and the resulting suspensions were incubated for 30 minutes at 37° C. Subsequently, 50 μL of a 20% of pooled human serum in complete media were added to experiment wells and control wells (i.e., no antibody) and the plate was incubated for 1 hours at 37° C. in a fully humidified atmosphere of 5% CO2. Subsequently, 6 uL of 2.5 μg/mL was added to each well and after 10 minutes the plate was analyzed using an Attune NxT Flow Cytometer. Target cell viability was accessed by determining the percentage of 7-AAD positive cells. CDC was calculated as follows: % CDC=% 7-AAD positive target cells in experiment well—% 7-AAD positive target cells in control wells.

[9] = tested on: Raji cells and Rituximab resistant Raji 4RH cells; assay: In vivo CD20 expression in subcutaneous Raji and Raji 4RH tumors (Western blot); details: SCID mice, i.p., 10 mg/kg every second day over 8 days
Protocol: In vivo increase in CD20 expression of Raji cells and Rituximab resistant Raji 4RH cells. A study was performed to determine whether Kif can increase the expression of CD20 on Raji cells and Rituximab resistant Raji 4RH cells that had been subcutaneously inoculated into the flank of six week old SCID mice. After inoculation, tumors were permitted to grow for 10 days prior to treatment initiation. The mice were randomly divided into control and treatment groups. Control group received PBS, while the treatment group received Kif (i.p., 10 mg/kg) every second day over an 8 day period. The mice were then scarified, tumors were harvested, and CD20 expression was assessed by Western blot.

Cc1c2oc3c(C)ccc(C(=O)N[C@@H]4C(=O)N[C@H](C(C)C)C(=O)N5CCC[C@H]5C(=O)N(C)CC(=O)N(C)[C@@H](C(C)C)C(=O)O[C@@H]4C)c3nc-2c(C(=O)N[C@@H]2C(=O)N[C@H](C(C)C)C(=O)N3CCC[C@H]3C(=O)N(C)CC(=O)N(C)[C@@H](C(C)C)C(=O)O[C@@H]2C)c(N)c1=O [ACT-D, actinomycin D] (I: T[dV]P[Sar][NMeV] / II: T[dV]P[Sar][NMeV]; ester I:1-I:C, II:1-II:C; linker I:N-II:N via Actinocin(9to1))
effect on Kif mediated CD20 upregulation [1]: inhibit Kif mediated CD20 upregulation

C[C@@H]1C[C@@H]([C@H](O)CC2CC(=O)NC(=O)C2)C(=O)[C@@H](C)C1 [CHX, cycloheximide]
effect on Kif mediated CD20 upregulation [1]: inhibit Kif mediated CD20 upregulation

OC[C@@H](O)[C@H]1NC[C@@H](O)[C@H]1O [DIM, 1,4-dideoxy-1,4-imino-D-mannitol]
cell surface expression of CD20 ([1]; Raji cells): significantly increase CD20 expression

OC[C@H]1NC[C@@H](O)[C@@H](O)[C@@H]1O [DMJ, 1-deoxymannojirimycin hydrochlorie]
cell surface expression of CD20 ([1]; Raji cells): significantly increase CD20 expression

O=C1N[C@@H]2[C@@H](O)[C@@H](O)[C@H](O)[C@@H](CO)N2C1=O [Kif, kifunensine]
cell surface expression of CD20 ([1]; Raji cells): increases cell surface expression of CD20 in Raji cells in a concentration dependent manner
CD20 expression by western blotting ([1]; Raji cells, whole cell lysate, 48 hours (FIG. 1B)): increase CD20 expression was confirmed by western blotting
CD20 upregulation in panel of cell lines [2]: upregulates CD20
CD20 expression in rituximab resistant cell lines [3]: significantly increased CD20 expression
CD20 expression in primary CLL samples [4]: increases CD20 expression in a dose-dependent and significant manner
expression of MS4A1 [5]: altered the expression of the MS4A1
histone acetylation [6]: did not significantly alter histone acetylation
obinutuzumab potency in combination with Kif ([7]; ADCC): potency of obinutuzumab was also increased
sensitization of rituximab resistant cell lines to rituximab (ADCC) ([7]; Raji 2R and Raji 4RH): sensitized to the action of rituximab
rituximab potency in ADCC in combination with Kif ([7]; all cell lines tested, Kif 25 μM 48 hours before rituximab mediated ADCC (FIG. 3A)): potency of rituximab was increased
complement mediated killing without antibody ([8]; Kif treated cells, absence of antibody): more susceptible to complement mediated killing in the absence of antibody
susceptibility to CDC with rituximab and ofatumumab ([8]; cells treated with Kif prior to CDC (FIG. 3B)): rendered cells more susceptible
sensitization of rituximab resistant cells to CDC ([8]; rituximab resistant cells, data not shown): not sensitized to CDC
side effects [9]: no side effects were observed
CD20 expression in tumors ([9]; Western blot, Raji and Raji 4RH): increases the expression of CD20

O[C@H]1[C@H]2[C@H](O)CCCN2C[C@H]1O [Swain, swainsonine]
cell surface expression of CD20 ([1]; Raji cells): significantly increase CD20 expression
